Earlier results in patent US20090214511A1, “DIGESTIBLE COMPOSITIONS OF INULIN FOR MANAGING BLOOD GLUCOSE LEVELS” (priority 2008, published 2009).

weight gain and edema versus non-users (randomized controlled trial, users vs non-users)	SMILES	cumulative incidence of monotherapy failure at 5 years (Type 2 diabetes, initial choice of anti-diabetic drug, 5 years) [%]
–	CN(C)C(=N)N=C(N)N [metformin]	21
more weight gain and edema	CN(CCOc1ccc(CC2SC(=O)NC2=O)cc1)c1ccccn1 (centres unmarked) [rosiglitazone]	–
